In patent publication US9428447B2, “Bis-(aryl/heteroaryl)-methylene compounds, pharmaceutical compositions containing same and their use for treating cancer” (The Royal Institution For The Advancement of …, priority 2011, dated 2016):

Legend:
VDR [1] = target: T1, VDR (Homo sapiens (Human), UniProt P11473); test: VDR agonism: induction of CYP24 gene expression in SCC25 cells (RT/PCR); format: cell-based; conditions: for VDR agonist activity/potency (CYP24 induction, dose response): 1d; for induction of CYP24 by the compound blocked (consistent with binding to the VDR): FIG. 1c; for VDR agonism by induction of CYP24 gene expression (screen): test compounds 10 μM, FIG. 1a
Protocol: RNA isolation and RT/PCR analysis. PCR primers against CYP24 (forward, 5',5'-[NT], reverse, 5'-[NT] designed using Primer3 software as described and used in […]-Mendoza, Quach, T., Dabbas, B., Hudon, J., Liao, X., Palijan, A., Gleason, J. L., and White, J. H. (2008) Incorporation of histone deacetylase inhibition into the structure of a nuclear receptor agonist. Proc. Nat. Acad. Sci. […] After treatment, cells were washed with PBS, homogenized with 1 ml TRIzol Reagent (Invitrogen, Carlsbad, Calif.), kept at room temperature for 2-5 min, collected and kept at -80° C. for at least 1 h. After, thawing 0.2 ml chloroform was added. After vigorous mixing and storing for 10 min, mixtures were centrifuged (10,000 rpm, 15 min, 4° C.) and the upper transparent layer was transferred to a new tube. 0.5 ml isopropanol was added and the new solution was mixed. After centrifuging at 4° C., the supernatant was discarded and 1 ml of 75% ethanol was added. After centrifuging and discarding the supernatant, the pellet was air-dried for 5-10 min, and then dissolved in ddH2O. RNA concentrations were measured using a spectrophotometer, and 1-3 μg of RNA were loaded for reverse transcriptase reactions (total volume: 20 μl). 80 μl of ddH2O was added to the RT-product, and 1.5 μl of that was used as template for the PCR reaction. Reverse transcriptase (Super Script II) was purchased from Invitrogen (Carlsbad, Calif.). DNA polymerase and dNTP's were ordered from Fermentas (Glen Burnie, Md.).

SCC25 cells = test: EdU cell growth assay, SCC25
Protocol: (§2) EdU Cell Growth Assay. Click-iT EdU Alexa Fluor high-throughput imaging (HCS) assay for cell proliferation. HCS assays were performed on AT84 mouse squamous carcinoma cell line (ATCC) following the manufacturer's instruction (Molecular Probes, Invitrogen). […] All samples were in triplicate.

AT84 cells = test: EdU cell growth assay, AT84
Protocol: as §2

[2] = test system: 60 cell panel of human carcinoma cell lines; test: National Cancer Institute 60 cell panel (overall); format: cell-based
IGROV1 = test: NCI 60 cell panel: IGROV1; format: cell-based; conditions: Ovarian Cancer
SCC4 cells [3] = test: MTS cell proliferation assay, SCC4; format: cell-based, human; conditions: vitamin D resistant SCC4 cells; FIGS. 7c, 8 and 9
Description: Dose-dependent effects of compounds on cell cycle progression was monitored using a CellTiter 96 Aqueous Non-Radioactive Cell Proliferation Assay Kit (Promega). The assay composed of solutions of a novel tetrazolium compound (MTS) and an electron coupling reagent (phenazine methosulfate; PMS). MTS is reduced by metabolically active cells into a soluble formazan product that absorbs at 490 nm. The quantity of formazan product absorbing at 490 nm is directly proportional to the number of living cells.

SCC4 cells [4] = test: LDH cytotoxicity assay, SCC4; format: cell-based, human; conditions: vitamin D resistant SCC4 cells; FIGS. 10 and 11
Protocol: The cytotoxic effects of compounds were screened using a Cytotoxicity Assay Kit (Cayman Chemical), which measures release of the soluble […] enzyme lactate dehydrogenase (LDH) from dying cells into the culture medium using a coupled two-step reaction. LDH in the media catalyzes the reduction of NAD+ to NADH and H+ by oxidation of lactate to pyruvate. LDH-catalyzed NADH production is then measured by following diaphorase catalyzed NADH-dependent reduction of a tetrazolium salt (INT) to highly-colored formazan which absorbs strongly at 490-520 nm.

[5] = test system: total intracellular HDAC activity; test: HDACi activity with fluorogenic substrate in live SCC25 cells; format: cell-based, human; conditions: increasing concentration, FIG. 2a, b
Description: (§1) This assay measures the inhibition of total intracellular HDAC activity and determines the capacity of compounds to inhibit HDACs in the form of their naturally occurring complexes.

[6] = test system: total intracellular HDAC activity; test: HDACi activity with fluorogenic substrate in live SCC4 cells; format: cell-based, human; conditions: increasing concentration, FIG. 2a, b
Description: as §1

VDR [7] = target: T1, VDR; test: Chromatin immunoprecipitation (ChIP) assay, CYP24 promoter, SCC25 cells; format: cell-based; conditions: FIG. 1e
Protocol: Chromatin immunoprecipitation assays. ChIP assays were performed with sonicated extracts of SCC25 cells as described (see Wang, T.-T. et al. J Immunol (2004) 173:2909-2912). […] Immunoprecipitations were performed using normal rabbit IgG, anti-VDR antibody (c-20) (Santa Cruz Biotechnology, Santa Cruz, Calif.). […].

[8] = target: VDR ligand binding domain (Homo sapiens (Human), UniProt P11473); test: Fluorescence polarization (FP) competition assay; conditions: 0.5 nM fluorescent tracer
Protocol: Fluorescence polarization (FP) competition assay. The assay was performed using a vitamin D receptor competitor assay kit (Polarscreen, Invitrogen, Carlsbad, Calif.) set up using 0.5 nM fluorescent tracer. The assay measures the decrease in FP accompanying loss of binding to the relatively high molecular weight VDR ligand binding domain of the fluorescent tracer due to the presence of a competitor. FP was measured using an Analyst HT fluorimeter (Molecular Devices) configured with absorption and emissions filters as recommended by the kit manufacturers. Dose response curves and IC50 determination were determined using XLfit (IDBS) Sigmoidal Dose-Response Model [fit=(A+((B−A)/(1+((C/x)^D)))); inv=(C/((((B−A)/(y−A))−1)^(1/D))); res=(y−fit)].

SCC4 cells [9] = test: EdU cell growth assay, SCC4; conditions: 1,25D-resistant SCC4 cells; FIG. 2e, f
Protocol: as §2

T1 sequence (P11473 whole entry): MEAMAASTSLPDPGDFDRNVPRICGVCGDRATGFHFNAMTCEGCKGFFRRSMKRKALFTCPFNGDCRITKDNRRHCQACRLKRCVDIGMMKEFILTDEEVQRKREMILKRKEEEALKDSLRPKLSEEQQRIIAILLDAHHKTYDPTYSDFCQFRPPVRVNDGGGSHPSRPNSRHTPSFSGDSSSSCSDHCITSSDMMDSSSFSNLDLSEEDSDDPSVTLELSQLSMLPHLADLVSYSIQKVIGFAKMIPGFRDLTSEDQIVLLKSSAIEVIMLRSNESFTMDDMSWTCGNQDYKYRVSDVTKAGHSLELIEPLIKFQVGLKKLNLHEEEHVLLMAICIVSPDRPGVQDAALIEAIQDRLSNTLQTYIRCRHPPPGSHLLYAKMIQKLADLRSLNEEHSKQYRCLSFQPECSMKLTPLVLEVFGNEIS
Sequence of VDR ligand binding domain (P11473 127-423): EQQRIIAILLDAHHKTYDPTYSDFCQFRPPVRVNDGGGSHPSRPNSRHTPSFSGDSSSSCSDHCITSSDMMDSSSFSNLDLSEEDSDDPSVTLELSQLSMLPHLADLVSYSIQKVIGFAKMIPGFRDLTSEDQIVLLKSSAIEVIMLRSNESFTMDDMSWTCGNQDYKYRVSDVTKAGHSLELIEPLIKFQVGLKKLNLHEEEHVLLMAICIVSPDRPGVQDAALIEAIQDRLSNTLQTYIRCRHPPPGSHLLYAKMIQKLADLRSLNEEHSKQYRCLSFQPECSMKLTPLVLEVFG

## CCC(CC)(c1ccc(OCC(=O)NO)c(C)c1)c1ccc(OCC(O)C(C)(C)C)c(C)c1 (racemic) [JF-B01, N-Hydroxy-2-(4-(3-(4-(2-hydroxy-3,3-dimethylbutoxy)-3-methylphenyl)pentan-3-yl)-2-methylphenoxy)acetamide]
VDR [1]; FIG. 1b
  VDR agonist potency relative to 1,25D (fold lower): approximately 10 fold
  VDR agonist potency relative to LG190178: equal to or greater than that of LG190178
  VDR agonist activity/potency (CYP24 induction, dose response): efficacious agonist
VDR [1]
  induction of CYP24 by the compound blocked (consistent with binding to the VDR): blocked
  VDR agonism by induction of CYP24 gene expression (screen): showed any agonist activity against VDR
SCC25 cells
  antiproliferative potency relative to 1,25D (fold less potent): 10 fold
AT84 cells
  antiproliferative potency relative to 1,25D (fold less potent): 10 fold
[2]; all cell lines
  antiproliferative activity in the 60 cell panel: displayed antiproliferative activity in all cell lines
[2]; melanoma cell lines, 8 out of 9 cell lines
  full growth inhibition concentration: ≤ 7 µM
IGROV1
  TGI: 5.25E−6
SCC4 cells [3]
  antiproliferative potency (MTS): low micromolar potency

## CCC(CC)(c1ccc(OCC(O)C(C)(C)C)c(C)c1)c1cc(C)c(CCC(=O)NO)s1 (stereo not drawn) [DK-178, N-hydroxy-3-(5-(3-(4-(2-hydroxy-3,3-dimethylbutoxy)-3-methylphenyl)pentan-3-yl)-3-methylthiophen-2-yl)propanamide]
SCC4 cells [3]
  antiproliferative potency (MTS): low micromolar potency

## CCC(CC)(c1ccc(OCC(O)C(C)(C)C)c(C)c1)c1c[nH]c2cc(CCC(=O)NO)ccc12 (stereo not drawn) [DK-222]
SCC4 cells [4]
  cytotoxicity (LDH release): good cytotoxicity
SCC4 cells [3]
  antiproliferative potency (MTS): low micromolar potency

## CCC(CC)(c1ccc(OCC(O)C(C)(C)C)c(C)c1)c1cn(C)c2cc(CCC(=O)NO)ccc12 (stereo not drawn) [DK-234, N-hydroxy-3-(3-(3-(4-(2-hydroxy-3,3-dimethylbutoxy)-3-methylphenyl)pentan-3-yl)-1-methyl-1H-indol-6-yl)propanamide]
SCC4 cells [3]
  antiproliferative potency (MTS): low micromolar potency

## CCC(CC)(c1ccc(OCC(O)C(C)(C)C)c(C)c1)c1ccc(OCC(=O)NO)c(Br)c1 (stereo not drawn) [DK-309, 2-(2-bromo-4-(3-(4-(2-hydroxy-3,3-dimethylbutoxy)-3-methylphenyl)pentan-3-yl)phenoxy)-N-hydroxyacetamide]
SCC4 cells [4]
  cytotoxicity (LDH release): good cytotoxicity

## CCC(CC)(c1ccc(OCC(=O)NO)cc1)c1ccc(OCC(O)C(C)(C)C)c(C)c1 (stereo not drawn) [DK-366, N-hydroxy-2-(4-(3-(4-(2-hydroxy-3,3-dimethylbutoxy)-3-methylphenyl)pentan-3-yl)phenoxy)acetamide]
SCC4 cells [4]
  cytotoxicity (LDH release): good cytotoxicity
SCC4 cells [3]
  antiproliferative potency (MTS): low micromolar potency

## CCC(CC)(c1ccc(OCCCCCC(=O)NO)cc1)c1ccc(OCC(O)C(C)(C)C)c(C)c1 (stereo not drawn) [DK-367]
SCC4 cells [3]
  antiproliferative potency (MTS): low micromolar potency

## CCC(CC)(c1ccc(OCC(=O)NO)c(C)c1)c1ccc(OCC(=O)NO)c(C)c1 [JF-B06]
VDR [1]
  VDR agonism by induction of CYP24 gene expression (screen): completely inactive as VDR agonists

## CCC(CC)(c1ccc(OCC(=O)NO)c(C)c1)c1ccc(OCC(CO)CO)c(C)c1 [JF-B21]
VDR [1]
  VDR agonism by induction of CYP24 gene expression (screen): completely inactive as VDR agonists

## CCC(CC)(c1ccc(OCC(=O)NO)c(C)c1)c1ccc(OCC(O)CO)c(C)c1 (stereo not drawn) [JF-B40]
VDR [1]
  VDR agonism by induction of CYP24 gene expression (screen): completely inactive as VDR agonists

## CCC(CC)(c1ccc(OCCO)c(C)c1)c1ccc(OCC(=O)NO)c(C)c1 [JF-B52, N-Hydroxy-2-(4-(3-(4-(2-hydroxyethoxy)-3-methylphenyl)pentan-3-yl)-2-methylphenoxy)acetamide]
VDR [1]
  VDR agonism by induction of CYP24 gene expression (screen): completely inactive as VDR agonists

## CCC(CC)(c1ccc(OCC(=O)NO)c(C)c1)c1ccc(OCC(C)(C)O)c(C)c1 [JF-B53, N-Hydroxy-2-(4-(3-(4-(2-hydroxy-2-methylpropoxy)-3-methylphenyl)pentan-3-yl)-2-methylphenoxy)acetamide]
VDR [1]; FIG. 1b
  VDR agonist activity/potency (CYP24 induction, dose response): showed VDR agonist activity, but with reduced potency
VDR [1]
  induction of CYP24 by the compound blocked (consistent with binding to the VDR): blocked

## CCC(O)(CC)COc1ccc(C(CC)(CC)c2ccc(OCC(=O)NO)c(C)c2)cc1C [JF-B54, 2-(4-(3-(4-(2-Ethyl-2-hydroxybutoxy)-3-methylphenyl)pentan-3-yl)-2-methylphenoxy)-N-hydroxyacetamide]
[5]
  inhibition of total intracellular HDAC activity (substrate deacetylation): the most potent
VDR [1]; FIG. 1b
  VDR agonist activity/potency (CYP24 induction, dose response): showed VDR agonist activity, but with reduced potency
VDR [1]
  induction of CYP24 by the compound blocked (consistent with binding to the VDR): blocked
[6]
  inhibition of total intracellular HDAC activity (substrate deacetylation): the most potent

## CCC(CC)(c1ccc(OCC(=O)NO)c(C)c1)c1ccc(OCC(=O)C(C)(C)C)c(C)c1 [JF-B59, 2-(4-(3-(4-(3,3-dimethyl-2-oxobutoxy)-3-methylphenyl)pentan-3-yl)-2-methylphenoxy)-N-hydroxyacetamide]
VDR [1]; FIG. 1b
  VDR agonist potency relative to JF-B01 (fold lower): > 10 fold

## CCC(CC)(c1ccc(OCC(=O)O)c(C)c1)c1ccc(OCC(=O)C(C)(C)C)c(C)c1 [JF-C11]
VDR [1]
  VDR agonism by induction of CYP24 gene expression (screen): showed some agonist activity

## CCC(CC)(c1ccc(OCC(=O)NO)c(C)c1)c1ccc(OC[C@H](O)C(C)(C)C)c(C)c1 [JF-C71, N-Hydroxy-2-(4-(3-(4-((2R)-hydroxy-3,3-dimethylbutoxy)-3-methylphenyl)pentan-3-yl)-2-methylphenoxy)acetamide]
VDR [1]; FIG. 1b
  VDR agonist activity/potency (CYP24 induction, dose response): VDR agonists with similar potencies
VDR [7]
  binding of the VDR to the vitamin D response element in the proximal promoter of the CYP24 gene (ChIP): induced binding of the VDR to the vitamin D response element
SCC4 cells [3]
  antiproliferative potency (MTS): low micromolar potency
[8]
  IC50: ~100 nM

## CCC(CC)(c1ccc(OCC(=O)NO)c(C)c1)c1ccc(OC[C@@H](O)C(C)(C)C)c(C)c1 [JF-C72]
VDR [1]; FIG. 1b
  VDR agonist activity/potency (CYP24 induction, dose response): VDR agonists with similar potencies
VDR [7]
  binding of the VDR to the vitamin D response element in the proximal promoter of the CYP24 gene (ChIP): induced binding of the VDR to the vitamin D response element
SCC4 cells [3]
  antiproliferative potency (MTS): low micromolar potency
[8]
  IC50: ~35 nM

## CCC(CC)(c1ccc(OCCCC(=O)NO)c(C)c1)c1ccc(OC[C@H](O)C(C)(C)C)c(C)c1 [JFD-15]
SCC4 cells [3]
  antiproliferative potency (MTS): low micromolar potency

## CCC(CC)(c1ccc(CCC(=O)NO)c(C)c1)c1ccc(OC[C@H](O)C(C)(C)C)c(C)c1 [JFD-50]
SCC4 cells [3]
  antiproliferative potency (MTS): low micromolar potency

## CCC(CC)(c1ccc(OCC(O)CO)c(C)c1)c1ccc(OCC(O)C(C)(C)C)c(C)c1 (stereo not drawn) [LG190178]
SCC4 cells [9]
  inhibition of proliferation (EdU incorporation): failed to block SCC4 proliferation
